Measurements: ChEMBL document CHEMBL5649166, “RIP3 induces apoptosis independent of pronecrotic kinase activity” (Mol Cell, 2014)

Columns and labels:
[1] = biological target: T1, Serine/threonine-protein kinase TAO3 (Homo sapiens) (UniProt Q9H2K8); test: Inhibition of human TAOK3/JIK using myelin basic protein as substrate at 1 uM in presence of 32P-ATP by Hotspot assay relative to control; values are per cent of control
T1 sequence (whole entry): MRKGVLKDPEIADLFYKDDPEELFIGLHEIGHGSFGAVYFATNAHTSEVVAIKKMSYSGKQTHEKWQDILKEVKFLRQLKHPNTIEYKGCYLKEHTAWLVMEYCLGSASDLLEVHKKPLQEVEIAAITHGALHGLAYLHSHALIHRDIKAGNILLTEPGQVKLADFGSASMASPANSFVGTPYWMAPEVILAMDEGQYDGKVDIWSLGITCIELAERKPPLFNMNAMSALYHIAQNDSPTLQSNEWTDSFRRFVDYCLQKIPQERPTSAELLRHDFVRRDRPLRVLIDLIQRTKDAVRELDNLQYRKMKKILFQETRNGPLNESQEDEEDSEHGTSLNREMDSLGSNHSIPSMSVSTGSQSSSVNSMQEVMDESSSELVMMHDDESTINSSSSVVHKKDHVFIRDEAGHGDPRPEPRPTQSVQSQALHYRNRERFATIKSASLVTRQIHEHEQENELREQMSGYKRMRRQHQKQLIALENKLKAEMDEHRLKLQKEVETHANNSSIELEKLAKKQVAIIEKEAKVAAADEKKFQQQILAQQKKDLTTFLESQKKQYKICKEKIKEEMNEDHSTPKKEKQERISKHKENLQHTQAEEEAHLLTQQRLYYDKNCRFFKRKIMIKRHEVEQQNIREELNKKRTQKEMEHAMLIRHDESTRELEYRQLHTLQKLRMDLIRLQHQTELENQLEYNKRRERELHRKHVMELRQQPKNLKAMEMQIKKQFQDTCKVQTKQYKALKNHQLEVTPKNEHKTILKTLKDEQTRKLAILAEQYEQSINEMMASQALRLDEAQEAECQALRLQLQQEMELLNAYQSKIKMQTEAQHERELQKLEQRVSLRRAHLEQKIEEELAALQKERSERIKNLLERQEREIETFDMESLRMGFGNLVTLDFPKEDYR

[2] = biological target: T2, Serine/threonine-protein kinase Nek9 (Homo sapiens) (UniProt Q8TD19); test: Inhibition of human NEK9 using myelin basic protein as substrate at 1 uM in presence of 32P-ATP by Hotspot assay relative to control; values are per cent of control
T2 sequence (whole entry): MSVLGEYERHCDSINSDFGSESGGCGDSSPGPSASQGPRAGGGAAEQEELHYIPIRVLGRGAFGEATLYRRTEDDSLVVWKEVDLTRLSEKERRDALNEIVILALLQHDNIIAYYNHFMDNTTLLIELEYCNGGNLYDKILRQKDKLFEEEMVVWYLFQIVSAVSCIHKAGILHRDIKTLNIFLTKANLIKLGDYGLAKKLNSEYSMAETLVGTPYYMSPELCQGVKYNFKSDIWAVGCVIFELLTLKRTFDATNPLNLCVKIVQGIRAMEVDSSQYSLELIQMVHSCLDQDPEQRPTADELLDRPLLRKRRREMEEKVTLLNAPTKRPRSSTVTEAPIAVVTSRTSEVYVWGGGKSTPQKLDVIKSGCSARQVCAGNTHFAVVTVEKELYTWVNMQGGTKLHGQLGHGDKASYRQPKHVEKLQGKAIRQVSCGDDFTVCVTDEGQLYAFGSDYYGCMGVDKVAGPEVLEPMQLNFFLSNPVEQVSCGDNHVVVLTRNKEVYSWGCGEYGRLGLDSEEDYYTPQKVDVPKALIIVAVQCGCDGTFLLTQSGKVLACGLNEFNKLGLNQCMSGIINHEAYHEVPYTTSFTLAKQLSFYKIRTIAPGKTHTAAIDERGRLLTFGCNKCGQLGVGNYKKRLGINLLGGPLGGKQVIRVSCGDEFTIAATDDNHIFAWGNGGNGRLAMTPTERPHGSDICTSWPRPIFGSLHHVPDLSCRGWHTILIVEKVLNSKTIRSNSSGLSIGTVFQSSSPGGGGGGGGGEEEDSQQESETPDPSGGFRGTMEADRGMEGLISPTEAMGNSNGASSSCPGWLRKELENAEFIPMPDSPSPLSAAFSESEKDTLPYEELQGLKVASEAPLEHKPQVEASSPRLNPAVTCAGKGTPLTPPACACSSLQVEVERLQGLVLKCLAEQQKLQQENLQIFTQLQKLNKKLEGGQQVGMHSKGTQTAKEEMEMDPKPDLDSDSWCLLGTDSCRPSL

[3] = biological target: T3, Activin receptor type-1 (Homo sapiens) (UniProt Q04771); test: Inhibition of human ALK2/ACVR1 using casein as substrate at 1 uM in presence of 32P-ATP by Hotspot assay relative to control; values are per cent of control
T3 sequence (whole entry): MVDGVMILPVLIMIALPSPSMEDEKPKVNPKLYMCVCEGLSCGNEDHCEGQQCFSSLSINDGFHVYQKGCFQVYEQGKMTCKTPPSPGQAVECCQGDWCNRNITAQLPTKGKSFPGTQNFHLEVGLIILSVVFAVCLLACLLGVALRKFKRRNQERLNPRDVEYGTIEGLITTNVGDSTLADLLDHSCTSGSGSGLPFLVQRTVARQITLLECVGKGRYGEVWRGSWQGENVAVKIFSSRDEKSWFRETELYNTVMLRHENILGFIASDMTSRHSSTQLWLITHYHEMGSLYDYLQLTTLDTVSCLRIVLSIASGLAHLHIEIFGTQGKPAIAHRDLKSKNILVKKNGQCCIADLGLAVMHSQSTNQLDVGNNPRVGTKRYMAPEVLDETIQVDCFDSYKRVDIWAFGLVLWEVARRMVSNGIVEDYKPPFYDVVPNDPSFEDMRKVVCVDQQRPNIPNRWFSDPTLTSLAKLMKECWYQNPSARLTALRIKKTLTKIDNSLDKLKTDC

[4] = biological target: Serine/threonine-protein kinase PLK3 (Homo sapiens) (UniProt Q9H4B4); test: Residual activity of human PLK3 using casein as substrate at 1 uM in presence of 32P-ATP by Hotspot assay relative to control
[5] = biological target: MAP kinase-activated protein kinase 2 (Homo sapiens) (UniProt P49137); test: Inhibition of human MAPKAPK2 using KKLNRTLSVA as substrate at 1 uM in presence of 32P-ATP by Hotspot assay relative to control; values are per cent of control
[6] = biological target: Dual specificity protein kinase CLK1 (Homo sapiens) (UniProt P49759); test: Inhibition of human CLK1 using myelin basic protein as substrate at 1 uM in presence of 32P-ATP by Hotspot assay relative to control; values are per cent of control
Dual specificity protein kinase CLK1 (Homo sapiens), sequence (P49759 whole entry, looked up): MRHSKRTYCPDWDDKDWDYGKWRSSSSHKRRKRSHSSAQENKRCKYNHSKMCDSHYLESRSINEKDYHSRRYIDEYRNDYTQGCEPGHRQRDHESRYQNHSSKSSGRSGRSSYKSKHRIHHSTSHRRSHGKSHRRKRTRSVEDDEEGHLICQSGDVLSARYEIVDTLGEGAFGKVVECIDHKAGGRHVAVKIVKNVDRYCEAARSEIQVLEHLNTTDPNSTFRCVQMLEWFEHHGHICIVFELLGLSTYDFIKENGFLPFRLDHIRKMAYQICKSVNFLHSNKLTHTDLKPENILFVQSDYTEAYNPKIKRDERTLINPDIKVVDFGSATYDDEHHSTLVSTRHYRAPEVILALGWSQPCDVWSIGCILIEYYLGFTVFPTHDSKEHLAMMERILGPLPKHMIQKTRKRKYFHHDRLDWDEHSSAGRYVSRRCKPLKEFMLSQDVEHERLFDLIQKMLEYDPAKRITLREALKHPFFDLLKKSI

MAP kinase-activated protein kinase 2 (Homo sapiens), sequence (P49137 whole entry, looked up): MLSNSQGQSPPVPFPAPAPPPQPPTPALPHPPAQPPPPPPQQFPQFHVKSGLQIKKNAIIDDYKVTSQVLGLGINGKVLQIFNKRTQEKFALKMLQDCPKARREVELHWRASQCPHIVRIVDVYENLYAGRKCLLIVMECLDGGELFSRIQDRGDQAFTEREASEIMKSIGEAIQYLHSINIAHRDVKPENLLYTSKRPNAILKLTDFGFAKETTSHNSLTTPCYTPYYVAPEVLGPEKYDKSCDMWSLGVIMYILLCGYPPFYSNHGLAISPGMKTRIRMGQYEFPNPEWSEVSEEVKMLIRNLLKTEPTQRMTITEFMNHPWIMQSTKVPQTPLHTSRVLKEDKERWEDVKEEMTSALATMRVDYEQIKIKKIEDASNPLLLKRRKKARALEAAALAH
Serine/threonine-protein kinase PLK3 (Homo sapiens), sequence (Q9H4B4 whole entry, looked up): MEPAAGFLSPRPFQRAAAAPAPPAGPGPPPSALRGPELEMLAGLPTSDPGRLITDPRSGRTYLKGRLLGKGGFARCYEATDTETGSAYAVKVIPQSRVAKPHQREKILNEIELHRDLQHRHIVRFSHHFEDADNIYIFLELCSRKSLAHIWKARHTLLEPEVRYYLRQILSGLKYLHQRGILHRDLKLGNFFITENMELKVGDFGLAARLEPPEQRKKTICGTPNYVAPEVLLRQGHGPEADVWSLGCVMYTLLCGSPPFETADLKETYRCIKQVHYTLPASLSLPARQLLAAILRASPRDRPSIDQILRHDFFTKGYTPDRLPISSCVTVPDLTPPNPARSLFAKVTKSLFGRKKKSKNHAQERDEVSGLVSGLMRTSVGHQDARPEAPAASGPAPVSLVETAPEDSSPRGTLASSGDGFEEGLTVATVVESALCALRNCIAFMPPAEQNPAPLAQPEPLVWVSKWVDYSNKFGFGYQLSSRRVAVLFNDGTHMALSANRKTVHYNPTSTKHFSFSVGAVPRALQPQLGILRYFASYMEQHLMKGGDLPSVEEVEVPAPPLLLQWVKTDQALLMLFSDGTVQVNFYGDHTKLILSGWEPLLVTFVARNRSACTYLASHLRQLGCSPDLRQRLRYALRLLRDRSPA

| SMILES | residual activity [1] | residual activity [2] | residual activity [3] | residual activity [4] | residual activity [5] | residual activity [6] |
| --- | --- | --- | --- | --- | --- | --- |
| Cc1cc(-c2cnc(N)c3c(-c4ccc5scnc5c4)csc23)n(C)n1 | 99.4% | 91% | 101% | 91.7% | 89.1% | 74.7% |
| CC(C)S(=O)(=O)c1ccc2nccc(Nc3ccc4scnc4c3)c2c1 | 96.4% | 86.7% | 102% | 102% | 103% | 97.6% |
| CNC(=O)c1ccc2c(c1)ncn2-c1ccc(CC(=O)OC(C)(C)C)cc1 | 95.2% | 102% | 80.4% | 106% | 100% | 95.4% |
